Tests used:
IL-6 = assay: Inhibition of IL-6
MMP-9 = molecular target: T1, MMP-9 (Homo sapiens, UniProt P14780); assay: Matrix Metalloproteinase 9 Enzyme Activity (MMP-9) Assay (BioMol AK-410); format: biochemical; conditions: thiopeptide chromogenic substrate, absorbance 412 nm
T1 construct: purchased BioMol International AK-410
Text: (§1) MMPs are extracellular proteases that play a role in many normal and disease states by virtue of their broad substrate specificity. MMP-3 substrates include collagens, fibronectins, and laminin; while MMP-9 substrates include collagen VII, fibronectins and laminin. Colorimetric Drug Discovery kits from BioMol International for MMP-3 (AK-400) and MMP-9 (AK-410) were used to measure protease activity of MMPs using a thiopeptide as a chromogenic substrate (Ac-PLG-[2-mercapto-4-methyl-pentanoyl]-LG-OC2H5)5,6. The MMP cleavage site peptide bond is replaced by a thioester bond in the thiopeptide. Hydrolysis of this bond by an MMP produces a sulfhydryl group, which reacts with DTNB [5,5′-dithiobis(2-nitrobenzoic acid), Ellman's reagent] to form 2-nitro-5-thiobenzoic acid, which can be detected by its absorbance at 412 nm (ε=13,600 M−1 cm−1 at pH 6.0 and above 7). It was determined that Rosmarinus officinalis leaf extract inhibited MMP-3 by 40%, Morus alba fruit extract inhibited by 29%, and tetrahexyldecyl ascorbate inhibited by 38%. It was determined that Rosmarinus officinalis leaf extract inhibited MMP-9 by 61%, Morus alba fruit extract inhibited by 84%, tetrahexyldecyl ascorbate inhibited by 11%, and Acmella oleracea extract inhibited by 80%.

procollagen-1 = assay: Collagen Stimulation Assay (PICP ELISA, Takara #MK101); format: cell-based; conditions: normal human adult epidermal fibroblasts treated 3 days, culture medium
Text: Collagens (types I, II, III, IV and V) are synthesized as precursor molecules called procollagens. These precursor molecules contain additional peptide sequences, usually called “propeptides”, at both the amino-terminal and the carboxy-terminal ends. During cellular expression and secretion, procollagens are assembled in the trimeric form and then cleaved at specific N- and C-terminal sites by specific endopeptidases, generating three fragments: procollagen-1 N-terminal propeptide (PINP), Type I collagen, and procollagen-1 carboxy-terminal propeptide (PICP).
The function of the propeptides is to facilitate the winding of procollagen molecules into a triple-helical conformation within the endoplasmic reticulum. […]
Quantitative detection of PICP in fibroblast cell extracts and culture supernatants was performed with an enzyme immunoassay kit (e.g., Takara #MK101) to assess the effects of the ingredients on the synthesis of PICP in skin. […] The assay employed the quantitative sandwich enzyme immunoassay technique whereby a monoclonal antibody specific for procollagen peptide was pre-coated onto a microplate. […] Color development was stopped and the intensity of the color at 450 nm was measured using a microplate reader. […]

MMP-3 = molecular target: T2, MMP-3 (Homo sapiens, UniProt P08254); assay: Matrix Metalloproteinase 3 Enzyme Activity (MMP-3) Assay (BioMol AK-400); format: biochemical; conditions: thiopeptide chromogenic substrate, absorbance 412 nm
T2 construct: purchased BioMol International AK-400
Text: as §1

TNF-α = assay: Tumor Necrosis Factor Alpha (TNF-α) Assay (ELISA, PMA-treated keratinocytes); format: cell-based; conditions: normal human adult keratinocytes, PMA 10 ng/ml, 6 hours
Text: Tumor Necrosis Factor Alpha (TNF-α) Assay: Rosmarinus officinalis leaf extract and saccharide isomerate inhibit TNF-α activity. The prototype ligand of the TNF superfamily, TNF-α, is a pleiotropic cytokine that plays a central role in inflammation. Increase in its expression is associated with an up regulation in pro-inflammatory activity. The bioassay used analyzed the effect of Rosmarinus officinalis leaf extract and saccharide isomerate on the production of TNF-α by human epidermal keratinocytes. The endpoint of this assay was a spectrophotometric measurement that reflects the presence of TNF-α and cellular viability. The assay employed the quantitative sandwich enzyme immunoassay technique whereby a monoclonal antibody specific for TNF-α had been pre-coated onto a microplate.
Standards and samples were pipetted into wells of the microplate and any TNF-α present was bound by the immobilized antibody. After washing away any unbound substances, an enzyme-linked polyclonal antibody specific for TNF-α was added to the wells. Following a wash to remove any unbound antibody-enzyme reagent, a substrate solution was added to the wells and color developed in proportion to the amount of TNF-α bound in the initial step using a microplate reader for detection at 450 nm. The color development can be stopped and the intensity of the color was measured. […]

T1 sequence (P14780 107-444 limits assumed): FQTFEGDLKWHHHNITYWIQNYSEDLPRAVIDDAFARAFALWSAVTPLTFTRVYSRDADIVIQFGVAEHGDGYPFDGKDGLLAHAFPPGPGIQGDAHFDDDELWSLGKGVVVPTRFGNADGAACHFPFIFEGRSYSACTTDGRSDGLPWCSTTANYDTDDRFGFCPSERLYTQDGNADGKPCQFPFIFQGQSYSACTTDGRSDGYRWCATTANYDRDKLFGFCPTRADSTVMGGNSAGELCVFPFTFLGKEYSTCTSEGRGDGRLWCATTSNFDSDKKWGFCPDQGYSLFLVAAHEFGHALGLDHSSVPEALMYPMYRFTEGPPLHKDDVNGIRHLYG
T2 sequence (P08254 100-272 limits assumed): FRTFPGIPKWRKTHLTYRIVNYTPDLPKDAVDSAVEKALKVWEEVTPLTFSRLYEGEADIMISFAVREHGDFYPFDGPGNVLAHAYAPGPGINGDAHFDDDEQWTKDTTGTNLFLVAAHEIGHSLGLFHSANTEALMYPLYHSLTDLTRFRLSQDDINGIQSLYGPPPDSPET

Compound | Inhibit IL-6, Change (%) (IL-6) | Inhibit MMP-9, Change (%) (MMP-9) | Increase Collagen Expression (procollagen-1), Change (%) (procollagen-1) | Inhibit MMP-3, Change (%) (MMP-3) | Inhibit TNF-α, Change (%) (TNF-α)
CCCCCCCCC(CCCCCC)C(=O)OC[C@H](OC(=O)C(CCCCCC)CCCCCCCC)[C@H]1OC(=O)C(OC(=O)C(CCCCCC)CCCCCCCC)=C1OC(=O)C(CCCCCC)CCCCCCCC (some centres unmarked) [Tetrahexyldecyl ascorbate] | 38% | 11% | 50% | 38% | 
Saccharide isomerate |  |  |  |  | 88%
